Laboratory results taken from patent US20090305960A1, “Melanocortin Receptor-Specific Peptides for Treatment of Obesity / 669” (Palatin Technologies, Inc, priority 2008, published 2009).
Where a SMILES comes first, the peptide text is derived from it. Bridges are numbered along the chain shown (N, C = ends). [ ]: non-standard residue; d: D form. The star is where a group is joined. Orn = NCCC[C@H](N)C(=O)O; Bn = c1ccc(C*)cc1

Columns and labels:
hMC1-R = target: T1, hMC1-R (Homo sapiens, UniProt Q01726); experiment: Competitive binding assay, MC1-R; settings: competitive studies using Eu-NDP-α-MSH / NDP-α-MSH
T1 construct: expressed in transfected cells; host or cells: HEK-293 (membrane homogenates)
Procedure: Competitive inhibition binding assays were performed using membrane homogenates prepared from HEK-293 cells that express recombinant hMC1-R, hMC3-R, hMC4-R, or hMC5-R. In the examples that follow, all MC1-R, MC3-R, MC4-R and MC5-R values are for human recombinant receptors. Assays were performed in 96 well GF/B Millipore multiscreen filtration plates (MAFB NOB10) pre-coated with 0.5% bovine serum albumin (Fraction V). […] 35 μL of scintillation cocktail was added to each well and the plates counted on a Microbeta counter for 1 minute per well. […] Maximal specific binding (100%) was defined as the difference in radioactivity (cpm) bound to cell membranes in the absence and presence of 1 μM NDP-α-MSH. […] Ki values for test peptides of the present invention were determined using Graph-Pad Prism® curve-fitting software.
Alternatively, a competitive inhibition binding assay was performed employing Eu-NDP-α-MSH (PerkinElmer Life Sciences catalog No. AD0225) with determination by time-resolved fluorometry (TRF) of the lanthanide chelate. […] The plates were incubated on a shaker for 15 minutes and read at 340 nm excitation and 615 nm emission wavelengths. […] Ki values were determined by curve-fitting with Graph-Pad Prism® software using a one-site fixed-slope competition binding model.

[1] = Induction of penile erection in male rats; assay type: in vivo, rat; settings: IV
Procedure: The ability of peptides of the present invention to induce penile erection (PE) in male rats were evaluated with selected peptides. Male Sprague-Dawley rats weighing 250-300 g were kept on a 12 hour on/off light cycle with food and water ad libitum. All behavioral studies were performed between 9 a.m. and 4 p.m. Groups of 6-8 rats were administered peptides at a variety of doses via an IV route. Immediately after treatment, rats were placed into individual polystyrene cages (27 cm long, 16 cm wide, and 25 cm high) for behavioral observation, typically by remote video monitoring. Rats are observed for one hour, and the number of yawns, grooming bouts and PEs are recorded in 10-minute bins.

[2] = Food intake and body weight change in rats; assay type: in vivo, rat; settings: for decrease in food consumption compared to control: rats
Procedure: Change in food intake and body weight was evaluated for selected peptides administered by intravenous (IV) or subcutaneous injection routes. Male Sprague-Dawley rats were obtained from Hilltop Lab Animals, Inc. (Scottsdale, Pa.) or other vendors. Animals were individually housed in conventional polystyrene hanging cages and maintained on a controlled 12 hour on/off light cycle. Water and pelleted food was provided ad libitum. The rats were dosed IV with vehicle or selected peptides (0.3 to 1.0 mg/kg), or dosed subcutaneously with vehicle or selected peptides (doses up to 30 mg/kg). The changes in body weight and food intake for the 24 hour period after dosing was determined. The changes in body weight and food intake for the 48 hour and 72 hour periods after dosing can also be measured to determine reversal of changes in body weight and food intake effects back to baseline levels.

hMC4-R = target: T2, hMC4-R (Homo sapiens, UniProt P32245); experiment: Competitive binding assay using Eu-NDP-α-MSH, MC4-R
T2 construct: expressed in transfected cells; host or cells: HEK-293 (membrane homogenates)
Procedure: Competitive inhibition binding assays were performed using membrane homogenates prepared from HEK-293 cells that express recombinant hMC1-R, hMC3-R, hMC4-R, or hMC5-R. In the examples that follow, all MC1-R, MC3-R, MC4-R and MC5-R values are for human recombinant receptors. Assays were performed in 96 well GF/B Millipore multiscreen filtration plates (MAFB NOB10) pre-coated with 0.5% bovine serum albumin (Fraction V). Membrane homogenates were incubated with 0.1 nM [1^125]-NDP-α-MSH (Perkin Elmer) and increasing concentrations of test peptides of the present invention in buffer containing 25 mM HEPES buffer (pH 7.5) with 100 mM NaCl, 2 mM CaCl2, 2 mM MgCl2, 0.3 mM 1,10-phenanthroline, and 0.1% bovine serum albumin. After incubation for 90 minutes at 37° C., the assay mixture was filtered and the membranes washed with 1 mL of cold 1×PBS wash buffer per well. 35 μL of scintillation cocktail was added to each well and the plates counted on a Microbeta counter for 1 minute per well. Non-specific binding was measured by inhibition of binding of [I^125]-NDP-α-MSH in the presence of 1 μM NDP-α-MSH. Maximal specific binding (100%) was defined as the difference in radioactivity (cpm) bound to cell membranes in the absence and presence of 1 μM NDP-α-MSH. Radioactivity (cpm) obtained in the presence of test compounds was normalized with respect to 100% specific binding to determine the percent inhibition of [I^125]-NDP-α-MSH binding. Each assay was conducted in duplicate and actual mean values are described, with results less than 0% reported as 0%. Ki values for test peptides of the present invention were determined using Graph-Pad Prism® curve-fitting software.
(§1) Alternatively, a competitive inhibition binding assay was performed employing Eu-NDP-α-MSH (PerkinElmer Life Sciences catalog No. AD0225) with determination by time-resolved fluorometry (TRF) of the lanthanide chelate. In comparison studies with [I^125]-NDP-α-MSH, the same values, within experimental error ranges, were obtained for percent inhibition and Ki. Typically competition experiments to determine Ki values were conducted by incubating membrane homogenates prepared from HEK-293 cells that express recombinant hMC4-R with 9 different concentrations of test compounds of interest and 1 nM of Eu-NDP-α-MSH in a solution containing 25 mM HEPES buffer with 100 mM NaCl, 2 mM CaCl2, 2 mM MgCl2, 0.1% BSA, and 0.3 mM 1,10-phenanthroline. After incubation for 90 minutes at 37° C., the reaction was stopped by filtration over AcroWell 96-well filter plates (Pall Life Sciences). The filter plates were washed 4 times with 200 μL of ice-cold phosphate-buffered saline. DELFIA Enhancement solution (PerkinElmer Life Sciences) was added to each well. The plates were incubated on a shaker for 15 minutes and read at 340 nm excitation and 615 nm emission wavelengths. Each assay was conducted in duplicate and mean values were utilized. Ki values were determined by curve-fitting with Graph-Pad Prism® software using a one-site fixed-slope competition binding model.

[3] = target: T3, human melanocortin-4 receptor (recombinant hMC4-R) (human, UniProt P32245 1-332); experiment: competitive binding vs Eu-NDP-α-MSH, TRF, hMC4-R HEK-293 membranes
T3 construct: whole, on cells; the cAMP assay used whole cells; also called MC4 receptor
Procedure: as §1, with “[I¹²⁵]-NDP-α-MSH,” for “[I^125]-NDP-α-MSH,”, “Typically competition experiments to determine Ki values were conducted by incubating membrane homogenates prepared from HEK-293 cells that express recombinant hMC4-R with 9 different concentrations of test compounds of interest and 1 nM of Eu-NDP-α-MSH in a solution containing 25 mM HEPES buffer with 100 mM NaCl, 2 mM CaCl2, 2 mM MgCl2, 0.1% BSA, and 0.3 mM 1,10-phenanthroline.” left out
Peptides of the following structures were synthesized by the general methods described above, and except where indicated MC4-R Ki values for each peptide were determined in competitive binding assays using Eu-NDP-α-MSH as described in 7.2 above.

[4] = rat feeding studies, overall finding in words

T2 sequence (P32245 whole entry): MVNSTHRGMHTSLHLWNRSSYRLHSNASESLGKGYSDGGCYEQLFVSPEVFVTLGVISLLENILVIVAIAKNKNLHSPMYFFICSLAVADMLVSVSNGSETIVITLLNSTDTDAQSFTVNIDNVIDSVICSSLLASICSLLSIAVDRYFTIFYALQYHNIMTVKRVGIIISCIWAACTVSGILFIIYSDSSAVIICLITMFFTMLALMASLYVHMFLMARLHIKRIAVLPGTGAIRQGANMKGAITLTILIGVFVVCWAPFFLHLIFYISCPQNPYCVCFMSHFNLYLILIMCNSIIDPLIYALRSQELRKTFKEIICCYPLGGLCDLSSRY
T1 sequence (Q01726 whole entry): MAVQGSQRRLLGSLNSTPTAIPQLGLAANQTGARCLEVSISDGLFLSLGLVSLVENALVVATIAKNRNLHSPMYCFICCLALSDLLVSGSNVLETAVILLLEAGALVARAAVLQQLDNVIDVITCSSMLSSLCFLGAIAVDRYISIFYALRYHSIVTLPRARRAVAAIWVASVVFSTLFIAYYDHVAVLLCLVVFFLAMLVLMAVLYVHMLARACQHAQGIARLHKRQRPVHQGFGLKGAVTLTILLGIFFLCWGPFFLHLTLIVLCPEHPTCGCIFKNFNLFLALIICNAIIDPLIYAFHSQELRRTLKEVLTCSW
T3 sequence (P32245 whole entry): as the sequence (P32245 whole entry) above

Molecule: CC(=O)N[C@@H](CCCNC(=N)N)C(=O)N[C@H]1CCCNC(=O)CC[C@@H](C(=O)O)NC(=O)[C@H](Cc2c[nH]c3ccccc23)NC(=O)[C@H](CCCNC(=N)N)NC(=O)[C@@H](Cc2ccccc2)NC(=O)[C@H](COCc2ccccc2)NC1=O [Compound 7, Ac-Arg-cyclo(Orn-Ser(Bzl)-D-Phe-Arg-Trp-Glu)-OH] (Ac-R[Orn]S(Bn)[dF]RWE-OH; lactam 2-7)
- Ki (hMC1-R): 2040 nM
- average spontaneous erections per rat in one hour ([1]; 1 mg/kg): 1.429±0.69 spontaneous erections per rat in one hour
- increase in observed spontaneous erections ([1]; in words): not found to result in a statistically significant increase
- food intake [2, 4]: reduce food intake
- rate of change in body weight [2, 4]: decrease the rate of change in body weight
- decrease in food consumption compared to control ([2]; 0.3 mg/kg, 0-2 hour period): statistically significant
- decrease in food consumption compared to control ([2]; 0.3 mg/kg, 0-4 hour period): statistically significant
- decrease in food consumption compared to control ([2]; 0.3 mg/kg, 0-20 hour period): statistically significant
- decrease in food consumption compared to control ([2]; 1 mg/kg, 0-4 hour period): statistically significant
- decrease in food consumption compared to control ([2]; 1 mg/kg, 0-20 hour period): statistically significant
- decrease in food consumption compared to control ([2]; 1 mg/kg, 4-20 hour period): statistically significant
- Ki (hMC4-R; competitive studies using Eu-NDP-α-MSH / NDP-α-MSH, average of several studies, read-out: Ki value at MC4-R): 9 nM
- selectivity for MC4-R (binding against MC1-R, MC3-R and MC4-R) (hMC4-R; in words): highly selective for MC4-R

B1: Ac-Arg-cyclo(Asp-Pro-D-Phe-Arg-trp-Lys)-OH (peptide)
peptide: RDPXRWK
modifications: not fully specified; N-terminal acetyl (Ac); D-Phe at position 4; side-chain lactam cyclo(Asp2-Lys7); C-terminal -OH; position 6 printed 'trp' in the table and in claim 5 but 'Trp' in the 2nd table
notes: Synthetic cyclic heptapeptide; also called Compound 8; No. 8
- Ki [3]: 116 nM
